Laboratory results taken from patent US20070202503A1, “Pharmaceutical Composition Of (+)-Erythro-Mefloquine And Its Use” (priority 2004, published 2007).

Experiments:
human neutrophil = conditions: cited from earlier work
[1] = Adverse events in clinical study on a background of methotrexate therapy; assay type: in vivo, patients; conditions: combination of (+)-erythro-mefloquine and methotrexate
Source text: The formulations were used on a background of methotrexate therapy.
This is shown in FIG. 2, a plot of TMD (mean score) against time (days); ♦ represents placebo, ▴ represents A, ▪ represents B and ★ represents C.

Structure (SMILES)	effect on human neutrophil degranulation (human neutrophil)	Adverse events compared with methotrexate alone [1]
OC(c1cc(C(F)(F)F)nc2c(C(F)(F)F)cccc12)C1CCCCN1 (racemic) [Racemic mefloquine, mefloquine]	stimulates human neutrophil degranulation	–
O[C@H](c1cc(C(F)(F)F)nc2c(C(F)(F)F)cccc12)[C@@H]1CCCCN1 [(+)-erythro-mefloquine]	–	lower adverse events than methotrexate alone
